System: iPSC-derived cortical neurons
Type: cell-based
Details: responders vs non-responders, 10 μM Bupropion

## CC(NC(C)(C)C)C(=O)c1cccc(Cl)c1 (stereo not drawn) [Bupropion, 3-Chloro-N-tert-butyl-β-keto-α-methylphenethylamin]
p<0.01
  logFC LGI1 expression: 0.9793
  logFC LRRC8B expression: 0.4223
  logFC MCM4 expression: 0.5295
  logFC MCUR1 expression: 0.2421
  logFC MDN1 expression: 0.4167
  logFC MEIOC expression: 0.7172
  logFC MGA expression: 0.3064
  logFC MGME1 expression: 0.4368
  logFC MZT1 expression: 0.4887
  logFC NFKBID expression: 0.4452
  logFC NOS2 expression: 1.462
  logFC NPY2R expression: 1.653
  logFC OSBPL11 expression: 0.3394
  logFC PAWR expression: 0.4771
  logFC PCGF5 expression: 0.6056
  logFC PHF6 expression: 0.4686
  logFC POU5F1B expression: 0.9729
  logFC PPAT expression: 0.4669
  logFC PRKDC expression: 0.3963
  logFC PTPN13 expression: 0.5645
  logFC RNGTT expression: 0.3114
  logFC S100A13 expression: 0.7404
  logFC SELENOI expression: 0.336
  logFC SFRP4 expression: 1.737
  logFC SIGLEC10 expression: 0.8067
  logFC SIKE1 expression: 0.3013
  logFC SIM1 expression: 2.052
  logFC SLC7A11 expression: 0.6075
  logFC SLC25A13 expression: 0.3285
  logFC SLC25A17 expression: 0.3611
  logFC SMG1 expression: 0.2796
  logFC SNRNP48 expression: 0.4371
  logFC SPIN4 expression: 0.4838
  logFC STK38L expression: 0.387
  logFC SYCP2L expression: 0.5973
  logFC TFAM expression: 0.4583
  logFC TIGAR expression: 0.4965
  logFC TNFRSF13C expression: 0.5218
  logFC TSGA10IP expression: 0.8595
  logFC TXNRD1 expression: 0.3112
  logFC USP37 expression: 0.2938
  logFC WNT8B expression: 1.79
  logFC WNT10B expression: 1.077
  logFC WWP1 expression: 0.3073
  logFC ZBTB24 expression: 0.4021
  logFC ZC3H13 expression: 0.2827
  logFC ZNF347 expression: 0.3648
  logFC ZWILCH expression: 0.4164
PValue NS
  logFC ACKR1: −1.506
  logFC ACVR2A: −0.6074
  logFC ADGRA1: −1.373
  logFC ADGRG1: −0.7037
  logFC AFAP1: −0.7585
  logFC ANKRD34A: −1.243
  logFC APBA1: −1.797
  logFC APC2: −1.57
  logFC APOL6: −1.252
  logFC ARHGAP22: −2.023
  logFC ASIC2: −1.907
  logFC ATL1: −1.284
  logFC ATP8A1: −1.064
  logFC BCL11A: −1.755
  logFC BTBD8: −0.8605
  logFC C1QL1: −1.952
  logFC C11orf87: −2.65
  logFC C11orf95: −0.652
  logFC C14orf132: −1.198
  logFC CACNA1E: −1.888
  logFC CALY: −1.348
  logFC CARMIL3: −1.181
  logFC CBFA2T3: −1.14
  logFC CDKN2D: −1.375
  logFC CEND1: −1.295
  logFC CHD5: −1.435
  logFC CHRNB4: −1.488
  logFC CHRNG: −1.545
  logFC CNR1: −1.187
  logFC CNTN2: −2.494
  logFC CRYGD: −3.453
  logFC CTIF: −0.9638
  logFC DACT3: −0.903
  logFC DCLK1: −1.159
  logFC DISP3: −1.132
  logFC DLGAP3: −1.159
  logFC DLL4: −2.038
  logFC DNAJC6: −1.057
  logFC DNAJC12: −0.9874
  logFC DNM3: −1.295
  logFC DOC2B: −2.034
  logFC DOK4: −0.8299
  logFC DPF3: −1.335
  logFC DPP6: −1.175
  logFC DUSP8: −1.12
  logFC DUSP26: −1.67
  logFC ELAVL2: −0.9184
  logFC ELAVL3: −1.463
  logFC ELMOD1: −1.395
  logFC EPHB2: −1.009
  logFC ERC2: −0.9757
  logFC ESRRB: −1.635
  logFC ESRRG: −1.003
  logFC FAM78B: −1.309
  logFC FAM131C: −1.177
  logFC FAM155A: −0.6581
  logFC FBLL1: −1.499
  logFC FBXL16: −0.9816
  logFC FLRT2: −0.9821
  logFC FRRS1L: −1.313
  logFC GALNT15: −1.592
  logFC GDAP1L1: −1.2
  logFC GDI1: −0.5928
  logFC GNAT3: −1.874
  logFC GNAZ: −0.8379
  logFC GNG2: −1.148
  logFC GPR12: −2.094
  logFC GPR83: −1.576
  logFC GPRASP1: −0.7562
  logFC GPRIN3: −1.516
  logFC GRIN2B: −2.921
  logFC GRIN3A: −2.57
  logFC GRM6: −1.37
  logFC GRM7: −1.699
  logFC GSE1: −0.6973
  logFC GSTM3: −1.177
  logFC HIVEP3: −1.261
  logFC HPCAL4: −1.489
  logFC INSYN1: −1.208
  logFC INSYN2A: −1.914
  logFC IQSEC3: −1.513
  logFC JAKMIP3: −0.927
  logFC KIDINS220: −0.8542
  logFC KIF1A: −1.165
  logFC KIF21B: −1.336
  logFC KLF7: −0.8775
  logFC L1CAM: −1.21
  logFC LANCL2: −0.7582
  logFC LBH: −0.8003
  logFC MACO1: −0.6324
  logFC MADD: −0.7392
  logFC MAGEE1: −0.8404
  logFC MANEAL: −1.302
  logFC MAOA: −1.531
  logFC MAP3K10: −0.7965
  logFC MAPK8IP1: −1.32
  logFC MAPT: −1.894
  logFC MCF2L: −1.13
  logFC MDGA1: −1.126
  logFC MLLT11: −1.039
  logFC MSANTD1: −1.341
  logFC MTMR4: −0.6785
  logFC MVB12B: −1.106
  logFC MYH3: −3.064
  logFC MYH6: −3.72
  logFC MYT1: −1.297
  logFC MYT1L: −2.032
  logFC NAPB: −1.05
  logFC NCAN: −1.327
  logFC NCS1: −1.056
  logFC NDP: −2.196
  logFC NEFL: −0.8556
  logFC NKAIN2: −1.212
  logFC NOL4L: −0.7376
  logFC NRN1: −0.9586
  logFC NRXN2: −1.352
  logFC NTRK1: −1.53
  logFC NTS: −1.335
  logFC NXPH1: −2.191
  logFC OLFM1: −1.154
  logFC OSBP2: −1.125
  logFC PCDHA5: −1.076
  logFC PCDHA7: −1.111
  logFC PCDHB13: −1.168
  logFC PCDHB15: −1.085
  logFC PCDHGA4: −1.156
  logFC PCDHGA6: −1.871
  logFC PCSK2: −1.936
  logFC PEG3: −3.912
  logFC PEX5L: −1.625
  logFC PHACTR1: −1.247
  logFC PIP4K2B: −0.6164
  logFC PLCL1: −1.271
  logFC PLPPR4: −2.082
  logFC PLPPR5: −1.467
  logFC PLXNA4: −1.432
  logFC PNMA6A: −1.328
  logFC PODXL2: −0.8136
  logFC PRKAR1B: −1.374
  logFC PTGFR: −2.027
  logFC PTPRT: −1.789
  logFC QPCT: −1.04
  logFC RALYL: −2.285
  logFC RGN: −1.436
  logFC RIMS3: −1.119
  logFC ROBO2: −1.394
  logFC RPS6KL1: −1.019
  logFC RTN2: −0.9099
  logFC RTN4: −0.6753
  logFC RUNDC3A: −1.678
  logFC RUSC2: −0.9937
  logFC SBK1: −0.9487
  logFC SCAMP5: −0.8113
  logFC SCRT1: −1.427
  logFC SEPTIN4: −1.513
  logFC SGIP1: −1.239
  logFC SH3GL2: −1.666
  logFC SHC2: −0.6933
  logFC SHC4: −2.453
  logFC SHISA7: −1.011
  logFC SLC1A4: −1.383
  logFC SLC4A3: −1.275
  logFC SLC6A17: −2.434
  logFC SLC24A3: −1.458
  logFC SLC30A10: −1.88
  logFC SLIT1: −1.122
  logFC SLITRK3: −2.443
  logFC SMIM18: −1.721
  logFC SMIM22: −1.921
  logFC SNAP25: −1.475
  logFC SNN: −0.6591
  logFC SOBP: −0.9125
  logFC SOGA3: −1.2
  logFC SOX4: −0.6592
  logFC SPOCK2: −2.032
  logFC SPRN: −1.245
  logFC SRL: −1.711
  logFC STMN3: −1.145
  logFC SYT3: −1.332
  logFC SYT4: −1.54
  logFC SYT5: −1.94
  logFC SYT11: −0.7686
  logFC TACR1: −1.666
  logFC TAFA2: −1.304
  logFC TBC1D30: −1.541
  logFC TCEAL6: −2.546
  logFC TMCC2: −0.92
  logFC TMEM35A: −1.274
  logFC TMEM179: −1.494
  logFC TMEM229B: −1.955
  logFC TMOD2: −1.477
  logFC TNR: −2.583
  logFC TRIM67: −1.894
  logFC UBE2QL1: −1.575
  logFC UNC13A: −0.9018
  logFC VAMP2: −0.7327
  logFC VSTM2L: −1.008
  logFC VWC2: −2.201
  logFC XKR4: −1.301
  logFC XKR7: −1.252
  logFC ZNF436: −0.8527
  logFC ZNF836: −0.9494
